Measured values: BindingDB's records for doi:10.1016/s0028-3908(00)00128-3 (University of Toronto, 2001)

The compounds below were run against Metabotropic glutamate receptor 8 (Rattus norvegicus, UniProt P70579).
Metabotropic glutamate receptor 8, sequence (P70579 whole entry): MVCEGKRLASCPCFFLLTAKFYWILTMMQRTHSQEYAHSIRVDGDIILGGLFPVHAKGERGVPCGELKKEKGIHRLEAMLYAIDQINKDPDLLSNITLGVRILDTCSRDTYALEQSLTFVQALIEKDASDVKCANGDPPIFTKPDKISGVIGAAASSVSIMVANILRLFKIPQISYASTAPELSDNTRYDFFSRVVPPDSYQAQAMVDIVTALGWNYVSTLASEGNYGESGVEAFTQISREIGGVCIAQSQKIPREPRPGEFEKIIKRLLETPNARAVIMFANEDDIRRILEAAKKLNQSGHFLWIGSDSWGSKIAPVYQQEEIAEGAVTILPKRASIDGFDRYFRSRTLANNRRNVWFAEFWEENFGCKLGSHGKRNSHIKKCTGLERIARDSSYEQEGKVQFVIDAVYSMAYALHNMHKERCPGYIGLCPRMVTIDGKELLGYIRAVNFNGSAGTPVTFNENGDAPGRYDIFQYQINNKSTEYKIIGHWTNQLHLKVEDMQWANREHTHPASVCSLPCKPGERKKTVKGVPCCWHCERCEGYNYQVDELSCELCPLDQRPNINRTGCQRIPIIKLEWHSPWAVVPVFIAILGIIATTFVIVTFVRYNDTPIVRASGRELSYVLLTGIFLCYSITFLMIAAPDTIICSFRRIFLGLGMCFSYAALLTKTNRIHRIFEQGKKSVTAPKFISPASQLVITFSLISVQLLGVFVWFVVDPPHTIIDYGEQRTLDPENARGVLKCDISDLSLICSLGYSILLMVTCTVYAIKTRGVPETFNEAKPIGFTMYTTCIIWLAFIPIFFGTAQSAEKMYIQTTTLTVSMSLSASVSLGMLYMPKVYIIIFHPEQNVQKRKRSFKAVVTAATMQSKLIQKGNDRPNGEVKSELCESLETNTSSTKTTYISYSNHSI

Compound	Ki [µM]
N[C@@H](COP(=O)(O)O)C(=O)O	1.2
N[C@@H](CCP(=O)(O)O)C(=O)O [2-Amino-4-phosphono-butyric acid]	2.7
N[C@H](CCP(=O)(O)O)C(=O)O [D-AP4]	> 10
NC(CCC(=O)O)C(=O)O (configuration not stated) [glutamic acid dianion]	> 10

Other lines, results leading:

Ki [µM]	Compound
0.48	CC(N)(C(=O)O)c1ccc(P(=O)(O)O)cc1 (configuration not stated)
> 10	C[C@@](N)(C(=O)O)c1ccc(C(=O)O)cc1 (racemic)
1.3	NC(C(=O)O)c1ccc(P(=O)(O)O)cc1 (configuration not stated) [Amino-(4-phosphono-phenyl)-acetic acid(RS-PPG)]
